Source: PMC12527922, “Cocaine chemogenetics blunts drug-seeking by synthetic physiology” (Nature, 2025)
Where “and” joins values, the source holds several entries; their conditions need not be identical. Equal values may be shown once.

How the values were obtained:
coca-GlyR = biological target: T1, coca-GlyR (Homo sapiens, UniProt P23415+P36544, G175K/L141G/Y217F); assay: [^3H]ASEM displacement, membranes of HEK293 cells expressing coca-GlyR; assay type: binding; conditions: for Ki: [^3H]ASEM competition, two-site fit
T1 construct: expressed in transfected cells; host or cells: HEK293 (ATCC CRL-1573), pcDNA3.1
Method: Cells were suspended in Tris-HCl 50 mM pH 7.4 supplemented with protease inhibitor cocktail (1:100, Sigma-Aldrich). HEK293 cells were disrupted with a 6 Polytron homogenizer (Kinematica). Homogenates were centrifuged at 48,000g (50 min, 4 °C) and washed twice in the same conditions to isolate the membrane fraction. Protein was quantified using the bicinchoninic acid method (Pierce). […] Free and membrane-bound radioligands were separated by rapid filtration of 500 μl aliquots in a 96-well plate harvester (Brandel) and washed with 2 ml of ice-cold Tris-HCl buffer. Microscint-20 scintillation liquid (65 μl per well, PerkinElmer) was added to the filter plates, plates were incubated overnight at room temperature and radioactivity counts were determined in the MicroBeta2 plate counter (PerkinElmer) with an efficiency of 41%. Two-site competition curves were fitted using Prism 10 (GraphPad). Ki values were calculated using the Cheng–Prusoff equation.

[1] = biological target: α7–GlyR mutant chimeric channels (Homo sapiens, UniProt P36544, P216I); assay: Membrane potential assay screen, mutant α7–GlyR chimeric channels; assay type: cell-based; conditions: EC50 at α7 GlyR P216I, sheet 1d
[2] = biological target: α7–GlyR mutant chimeric channels (Homo sapiens, UniProt P36544, L141P); assay: as above; assay type: cell-based; conditions: EC50 at α7 GlyR L141P, sheet 1d
[3] = biological target: α7–GlyR mutant chimeric channels (Homo sapiens, UniProt P36544, Q79A); assay: as above; assay type: cell-based; conditions: EC50 at α7-GlyR Q79A, sheet 1d
[4] = biological target: α7–GlyR mutant chimeric channels (Homo sapiens, UniProt P36544, L131Q); assay: as above; assay type: cell-based; conditions: EC50 at α7 GlyR L131Q, sheet 1d
[5] = biological target: α7–GlyR mutant chimeric channels (Homo sapiens, UniProt P36544, L141G); assay: as above; assay type: cell-based; conditions: EC50 at α7 GlyR L141G, sheet 1d
[6] = biological target: α7–GlyR mutant chimeric channels (Homo sapiens, UniProt P36544, P216M); assay: as above; assay type: cell-based; conditions: EC50 at α7 GlyR P216M, sheet 1d
[7] = biological target: α7–GlyR mutant chimeric channels (Homo sapiens, UniProt P36544, L131K); assay: as above; assay type: cell-based; conditions: EC50 at α7 GlyR L131K, sheet 1d
[8] = biological target: α7–GlyR mutant chimeric channels (Homo sapiens, UniProt P36544, L131A); assay: as above; assay type: cell-based; conditions: EC50 at α7GlyR L131A, sheet 1d
[9] = biological target: α7–GlyR mutant chimeric channels (Homo sapiens, UniProt P36544, P216V); assay: as above; assay type: cell-based; conditions: EC50 at α7 GlyR P216V, sheet 1d
[10] = biological target: α7–GlyR mutant chimeric channels (Homo sapiens, UniProt P36544, L131M); assay: as above; assay type: cell-based; conditions: EC50 at α7 GlyR L131M, sheet 1d
[11] = biological target: α7–GlyR mutant chimeric channels (Homo sapiens, UniProt P36544, Q79S); assay: as above; assay type: cell-based; conditions: EC50 at α7-GlyR Q79S, sheet 1d
[12] = biological target: α7–GlyR mutant chimeric channels (Homo sapiens, UniProt P36544, L141F); assay: as above; assay type: cell-based; conditions: EC50 at α7 GlyR L141F, sheet 1d
[13] = biological target: α7–GlyR mutant chimeric channels (Homo sapiens, UniProt P36544, L131N); assay: as above; assay type: cell-based; conditions: EC50 at α7 GlyR L131N, sheet 1d
[14] = biological target: α7–GlyR mutant chimeric channels (Homo sapiens, UniProt P36544, Q79G); assay: as above; assay type: cell-based; conditions: EC50 at α7-GlyR Q79G, sheet 1d
[15] = biological target: α7–GlyR mutant chimeric channels (Homo sapiens, UniProt P36544, W77F); assay: as above; assay type: cell-based; conditions: EC50 at a7 GlyR W77F, sheet 1d
[16] = biological target: α7–GlyR mutant chimeric channels (Homo sapiens, UniProt P36544, Q139G); assay: as above; assay type: cell-based; conditions: EC50 at α7 GlyR Q139G, sheet 1d
[17] = biological target: α7–GlyR mutant chimeric channels (Homo sapiens, UniProt P36544, L131F); assay: as above; assay type: cell-based; conditions: EC50 at α7GlyR L131F, sheet 1d
[18] = biological target: α7–GlyR mutant chimeric channels (Homo sapiens, UniProt P36544, P216A); assay: as above; assay type: cell-based; conditions: EC50 at α7 GlyR P216A, sheet 1d
[19] = biological target: α7–GlyR mutant chimeric channels (Homo sapiens, UniProt P36544, L131G); assay: as above; assay type: cell-based; conditions: EC50 at α7GlyR L131G, sheet 1d
[20] = biological target: α7–GlyR mutant chimeric channels (Homo sapiens, UniProt P36544, L141A); assay: as above; assay type: cell-based; conditions: EC50 at α7 GlyR L141A, sheet 1d
Chain of α7–GlyR mutant chimeric channels (Homo sapiens, UniProt P36544, L141A) (P36544 23-230 L141A): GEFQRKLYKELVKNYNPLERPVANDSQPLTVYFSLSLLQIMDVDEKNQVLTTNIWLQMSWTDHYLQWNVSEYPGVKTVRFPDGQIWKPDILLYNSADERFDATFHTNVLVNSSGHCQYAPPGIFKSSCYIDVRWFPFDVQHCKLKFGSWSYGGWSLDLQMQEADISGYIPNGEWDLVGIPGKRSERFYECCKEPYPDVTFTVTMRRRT
Chain of α7–GlyR mutant chimeric channels (Homo sapiens, UniProt P36544, L141A) (P23415 247-457 partner): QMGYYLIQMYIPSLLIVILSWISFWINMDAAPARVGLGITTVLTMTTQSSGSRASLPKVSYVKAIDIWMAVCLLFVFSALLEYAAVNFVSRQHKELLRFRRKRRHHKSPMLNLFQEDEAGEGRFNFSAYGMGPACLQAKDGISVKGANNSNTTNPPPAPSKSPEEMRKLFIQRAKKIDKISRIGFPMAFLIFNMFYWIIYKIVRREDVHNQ

Chain of α7–GlyR mutant chimeric channels (Homo sapiens, UniProt P36544, L131N) (P36544 23-230 L131N): as the sequence (P36544 23-230 L141A) above, with L109N, A119L counted along it
Chain of α7–GlyR mutant chimeric channels (Homo sapiens, UniProt P36544, L131N) (P23415 247-457 partner): as the sequence (P23415 247-457 partner) above
T1 sequence (P36544+P23415 fused P36544:L141G/P36544:G175K/P36544:Y217F): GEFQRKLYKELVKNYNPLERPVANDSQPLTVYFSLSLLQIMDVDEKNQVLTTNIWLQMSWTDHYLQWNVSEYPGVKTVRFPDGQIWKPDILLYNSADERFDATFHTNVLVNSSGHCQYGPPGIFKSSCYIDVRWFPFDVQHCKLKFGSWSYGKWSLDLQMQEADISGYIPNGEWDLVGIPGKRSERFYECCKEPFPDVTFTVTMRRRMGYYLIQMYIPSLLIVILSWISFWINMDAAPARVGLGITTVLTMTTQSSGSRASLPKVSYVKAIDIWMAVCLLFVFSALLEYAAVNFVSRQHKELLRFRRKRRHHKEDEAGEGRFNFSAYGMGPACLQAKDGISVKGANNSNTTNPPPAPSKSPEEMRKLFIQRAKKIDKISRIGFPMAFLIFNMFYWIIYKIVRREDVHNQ
Chain of α7–GlyR mutant chimeric channels (Homo sapiens, UniProt P36544, L141G) (P36544 23-230 L141G): as the sequence (P36544 23-230 L141A) above, with A119G counted along it
Chain of α7–GlyR mutant chimeric channels (Homo sapiens, UniProt P36544, L141G) (P23415 247-457 partner): as the sequence (P23415 247-457 partner) above
Chain of α7–GlyR mutant chimeric channels (Homo sapiens, UniProt P36544, Q79G) (P36544 23-230 Q79G): as the sequence (P36544 23-230 L141A) above, with Q57G, A119L counted along it
Chain of α7–GlyR mutant chimeric channels (Homo sapiens, UniProt P36544, Q79G) (P23415 248-457 partner): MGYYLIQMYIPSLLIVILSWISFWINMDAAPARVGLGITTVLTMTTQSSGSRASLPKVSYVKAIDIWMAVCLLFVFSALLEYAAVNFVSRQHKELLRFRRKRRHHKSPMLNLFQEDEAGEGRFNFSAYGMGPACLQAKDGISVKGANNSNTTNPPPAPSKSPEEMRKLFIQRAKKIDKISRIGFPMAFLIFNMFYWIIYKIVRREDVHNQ
Chain of α7–GlyR mutant chimeric channels (Homo sapiens, UniProt P36544, L141F) (P36544 23-230 L141F): as the sequence (P36544 23-230 L141A) above, with A119F counted along it
Chain of α7–GlyR mutant chimeric channels (Homo sapiens, UniProt P36544, L141F) (P23415 247-457 partner): as the sequence (P23415 247-457 partner) above
Chain of α7–GlyR mutant chimeric channels (Homo sapiens, UniProt P36544, L131F) (P36544 23-228 L131F): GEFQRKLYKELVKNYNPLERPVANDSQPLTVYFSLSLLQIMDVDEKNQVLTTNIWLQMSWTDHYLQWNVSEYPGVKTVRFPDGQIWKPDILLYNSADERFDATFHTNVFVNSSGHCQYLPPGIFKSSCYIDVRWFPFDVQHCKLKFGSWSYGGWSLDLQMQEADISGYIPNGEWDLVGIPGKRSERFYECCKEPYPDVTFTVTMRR
Chain of α7–GlyR mutant chimeric channels (Homo sapiens, UniProt P36544, L131F) (P23415 248-457 partner): as the sequence (P23415 248-457 partner) above
Chain of α7–GlyR mutant chimeric channels (Homo sapiens, UniProt P36544, P216I) (P36544 23-230 P216I): as the sequence (P36544 23-230 L141A) above, with A119L, P194I counted along it
Chain of α7–GlyR mutant chimeric channels (Homo sapiens, UniProt P36544, P216I) (P23415 248-457 partner): as the sequence (P23415 248-457 partner) above
Chain of α7–GlyR mutant chimeric channels (Homo sapiens, UniProt P36544, L131A) (P36544 23-228 L131A): as the sequence (P36544 23-228 L131F) above, with F109A counted along it
Chain of α7–GlyR mutant chimeric channels (Homo sapiens, UniProt P36544, L131A) (P23415 248-457 partner): as the sequence (P23415 248-457 partner) above
Chain of α7–GlyR mutant chimeric channels (Homo sapiens, UniProt P36544, Q139G) (P36544 23-230 Q139G): as the sequence (P36544 23-230 L141A) above, with Q117G, A119L counted along it
Chain of α7–GlyR mutant chimeric channels (Homo sapiens, UniProt P36544, Q139G) (P23415 248-457 partner): as the sequence (P23415 248-457 partner) above
Chain of α7–GlyR mutant chimeric channels (Homo sapiens, UniProt P36544, P216A) (P36544 23-230 P216A): as the sequence (P36544 23-230 L141A) above, with A119L, P194A counted along it
Chain of α7–GlyR mutant chimeric channels (Homo sapiens, UniProt P36544, P216A) (P23415 247-457 partner): as the sequence (P23415 247-457 partner) above

COC(=O)[C@H]1[C@@H](OC(=O)c2ccccc2)C[C@@H]2CC[C@H]1N2C [cocaine]
binding to coca-GlyR (coca-GlyR): biphasic manner
Ki (coca-GlyR; KiH): 0.014 ± 0.01 nM
Ki (coca-GlyR; KiL): 850 ± 500 nM
high-affinity binding sites (coca-GlyR; biphasic competition curve, [^3H]ASEM): 37.9 ± 0.5%
EC50 ([1]; Avg): > 30 µM
EC50 ([1]; single determinations): > 30 µM
EC50 ([2]; Avg): > 30 µM
EC50 ([2]; single determinations): > 30 µM
EC50 ([3]; Avg): > 30 µM
EC50 ([3]; single determinations): > 30 µM
EC50 ([4]; Avg): > 30 µM
EC50 ([4]; single determinations): > 30 µM
EC50 ([5]; Avg): 8.3 µM
EC50 ([5]; single determinations): 5.6 µM and 11 µM
EC50 ([6]; Avg): > 30 µM
EC50 ([6]; single determinations): > 30 µM
EC50 ([7]; Avg): > 30 µM
EC50 ([7]; single determinations): > 30 µM
EC50 ([8]; Avg): > 30 µM
EC50 ([8]; single determinations): > 30 µM
EC50 ([9]; Avg): > 30 µM
EC50 ([9]; single determinations): > 30 µM
EC50 ([10]; Avg): > 30 µM
EC50 ([10]; single determinations): > 30 µM
EC50 ([11]; Avg): > 30 µM
EC50 ([11]; single determinations): > 30 µM
EC50 ([12]; Avg): > 30 µM
EC50 ([12]; single determinations): > 30 µM
EC50 ([13]; Avg): 21 µM
EC50 ([13]; single determinations): 12 µM and > 30 µM
EC50 ([14]; Avg): > 30 µM
EC50 ([14]; single determinations): > 30 µM
EC50 ([15]; Avg): 3.4 µM
EC50 ([15]; single determinations): 3.4 µM
EC50 ([16]; Avg): > 30 µM
EC50 ([16]; single determinations): > 30 µM
EC50 ([17]; Avg): > 30 µM
EC50 ([17]; single determinations): > 30 µM
EC50 ([18]; Avg): > 30 µM
EC50 ([18]; single determinations): > 30 µM
EC50 ([19]; Avg): > 30 µM
EC50 ([19]; single determinations): > 30 µM
EC50 ([20]; Avg): 5 µM
EC50 ([20]; single determinations): 6.7 µM and 3.3 µM
